These results are taken from PMC12488480, “A missing enzyme-rescue metabolite as cause of a rare skeletal dysplasia” (Nature, 2025).

SMILES strings stand for the structures.

Common to all, as to format: biochemical
The target in test [1] is T1, UXS1 (UDP-xylose synthase) (Homo sapiens, UniProt Q8NBZ7).
T1 sequence (Q8NBZ7 1-420): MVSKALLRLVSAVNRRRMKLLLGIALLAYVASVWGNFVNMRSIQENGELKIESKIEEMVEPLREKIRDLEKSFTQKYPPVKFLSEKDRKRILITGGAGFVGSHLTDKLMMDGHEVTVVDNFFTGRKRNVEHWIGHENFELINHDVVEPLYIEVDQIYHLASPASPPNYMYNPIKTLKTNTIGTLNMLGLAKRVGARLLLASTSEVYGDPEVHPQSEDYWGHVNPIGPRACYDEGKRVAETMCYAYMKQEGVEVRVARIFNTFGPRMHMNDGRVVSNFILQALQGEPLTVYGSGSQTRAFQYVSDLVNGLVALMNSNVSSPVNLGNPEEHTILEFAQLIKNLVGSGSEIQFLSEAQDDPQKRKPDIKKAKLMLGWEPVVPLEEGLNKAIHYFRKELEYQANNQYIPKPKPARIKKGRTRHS
Briefly: NaBH4 reduction of enzyme-bound NAD+ in recombinant UXS1, LC-MS of NADH and activity.

Test [2] has as its target T2, TGDS (dTDP-D-glucose 4,6-dehydratase) (Homo sapiens, UniProt O95455).
T2 construct: N-terminal hexahistidine-tag fused to amino acid 15 of TGDS
T2 sequence (O95455 15-350): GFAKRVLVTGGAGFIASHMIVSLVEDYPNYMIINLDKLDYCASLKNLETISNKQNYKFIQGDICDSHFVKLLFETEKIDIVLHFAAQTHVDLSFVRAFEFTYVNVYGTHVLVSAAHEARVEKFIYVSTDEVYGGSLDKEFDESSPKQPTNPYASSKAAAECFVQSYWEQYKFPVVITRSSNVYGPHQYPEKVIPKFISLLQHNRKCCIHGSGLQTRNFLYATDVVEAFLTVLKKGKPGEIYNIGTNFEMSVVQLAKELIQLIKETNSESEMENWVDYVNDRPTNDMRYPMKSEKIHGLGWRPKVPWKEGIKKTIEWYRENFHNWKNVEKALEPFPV
Briefly: Recombinant enzyme assay, LC-MS.

The target in test [3] is T1, UXS1 (UDP-xylose synthase). Briefly: Recombinant enzyme assay, LC-MS.

Take `NC(=O)C1=CN([C@@H]2O[C@H](COP(=O)(O)OP(=O)(O)OC[C@H]3O[C@@H](n4cnc5c(N)ncnc54)[C@H](O)[C@@H]3O)[C@@H](O)[C@H]2O)C=CC1` [NADH]: the “NaBH4 reduction of enzyme-bound NAD+ in recombinant UXS1, LC-MS of NADH and acti” value in test [1] is “This led to tenfold lower levels of NAD^+ and a concomitant increase in NADH”.

With `C[C@H]1O[C@H](OP(=O)(O)OP(=O)(O)OC[C@H]2O[C@@H](n3ccc(=O)[nH]c3=O)[C@H](O)[C@@H]2O)[C@H](O)[C@@H](O)C1=O` [UDP-4k6dG, UDP-4-keto-6-deoxyglucose], in test [2], the “Recombinant enzyme assay, LC-MS” value is “TGDS produced a metabolite with identical m/z, elution time and hydration status as UDP-4-keto-6-deoxyglucose produced by fungal UG46DH”. `O=c1ccn([C@@H]2O[C@H](COP(=O)(O)OP(=O)(O)O[C@H]3OC[C@@H](O)[C@H](O)[C@H]3O)[C@@H](O)[C@H]2O)c(=O)[nH]1` [UDP-Xyl, UDP-xylose]: in test [3], the “Recombinant enzyme assay, LC-MS” value is on record as “We observed an almost complete recovery of UDP-xylose production, an increase of NAD^+”.
